We go through 18 molecules from BindingDB's records for doi:10.1016/s0960-894x(00)00312-7 (Signal Pharmaceuticals, 2000).

The term pIC50 denotes the IC50 on a negative log10 scale, so that one unit is a factor of ten. A lower pIC50 goes with a large IC50.

pIC50: −log10 of the molar value.

In the assay the target is Protein c-Fos/Transcription factor Jun (Homo sapiens, UniProt P05412+P01100). Description: Inhibition of AP-1 (activator protein-1) mediated transcriptional activation in Jurkat T-cells.
Chain of Protein c-Fos/Transcription factor Jun (P05412 whole entry): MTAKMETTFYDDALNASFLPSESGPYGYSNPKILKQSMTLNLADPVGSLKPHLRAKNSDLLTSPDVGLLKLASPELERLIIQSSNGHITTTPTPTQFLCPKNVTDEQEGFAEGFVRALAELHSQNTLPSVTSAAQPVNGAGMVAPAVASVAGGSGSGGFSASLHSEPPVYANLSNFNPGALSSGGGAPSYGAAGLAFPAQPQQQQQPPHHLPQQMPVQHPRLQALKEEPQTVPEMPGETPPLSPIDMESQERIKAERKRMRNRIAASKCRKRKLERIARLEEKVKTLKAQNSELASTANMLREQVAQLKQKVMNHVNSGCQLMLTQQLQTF
Chain of Protein c-Fos/Transcription factor Jun (P01100 whole entry): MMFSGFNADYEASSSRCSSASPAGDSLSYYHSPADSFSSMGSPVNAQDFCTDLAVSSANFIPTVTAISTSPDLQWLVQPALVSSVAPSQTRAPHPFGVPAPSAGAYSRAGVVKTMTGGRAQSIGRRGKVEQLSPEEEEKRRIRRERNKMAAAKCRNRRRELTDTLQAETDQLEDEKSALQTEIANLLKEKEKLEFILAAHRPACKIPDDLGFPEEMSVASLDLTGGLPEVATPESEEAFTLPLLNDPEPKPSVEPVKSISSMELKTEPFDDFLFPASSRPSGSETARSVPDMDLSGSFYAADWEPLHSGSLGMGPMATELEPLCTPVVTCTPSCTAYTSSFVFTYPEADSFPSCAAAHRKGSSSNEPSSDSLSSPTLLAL

With `CCOC(=O)c1cnc(CC)nc1N(C)N1C(=O)C=C(C)C1=O` [ethyl 2-ethyl-4-(methyl(3-methyl-2,5-dioxo-2H-pyrrol-1(5H)-yl)amino)pyrimidine-5-carboxylate], the pIC50 is 5.00. To `CCOC(=O)c1cnc(-c2ccc(F)cc2)nc1N(C)N1C(=O)C=C(C)C1=O` [2-(4-Fluoro-phenyl)-4-[methyl-(3-methyl-2,5-dioxo-2,5-dihydro-pyrrol-1-yl)-amino]-pyrimidine-5-carboxylic acid ethyl ester] belongs 5.52. Turning to `CCOC(=O)c1cnc(-c2cccc(OC)c2)nc1NN1C(=O)C=C(C)C1=O` [ethyl 2-(3-methoxyphenyl)-4-(3-methyl-2,5-dioxo-2H-pyrrol-1(5H)-ylamino)pyrimidine-5-carboxylate], the negative-log IC50 (pIC50) is 5.30.

`CCOC(=O)c1cnc(-c2cnc3ccccc3c2)nc1NN1C(=O)C=C(C)C1=O` [ethyl 4-(3-methyl-2,5-dioxo-2H-pyrrol-1(5H)-ylamino)-2-(quinolin-3-yl)pyrimidine-5-carboxylate] gave a pIC50 of 5.22. On to `CCOC(=O)c1cnc(-c2cccc([N+](=O)[O-])c2)nc1NN1C(=O)C=C(C)C1=O` [4-(3-Methyl-2,5-dioxo-2,5-dihydro-pyrrol-1-ylamino)-2-(3-nitro-phenyl)-pyrimidine-5-carboxylic acid ethyl ester], for which the pIC50 was 5.15. This pIC50 and that of the molecule before are within 0.2 log units of each other. To `CCOC(=O)c1cnc(-c2ccsc2)nc1NN1C(=O)C=C(C)C1=O` [ethyl 4-(3-methyl-2,5-dioxo-2H-pyrrol-1(5H)-ylamino)-2-(thiophen-3-yl)pyrimidine-5-carboxylate] belongs 7.00.

`CCOC(=O)c1cnc(-c2ccccc2)nc1N(C)N1C(=O)C=C(C)C1=O` [ethyl 4-(methyl(3-methyl-2,5-dioxo-2H-pyrrol-1(5H)-yl)amino)-2-phenylpyrimidine-5-carboxylate] had a pIC50 of 5.70. In the case of `CC1=CC(=O)N(Nc2nc(-c3cccs3)ncc2C#N)C1=O` [4-(3-Methyl-2,5-dioxo-2,5-dihydro-pyrrol-1-ylamino)-2-thiophen-2-yl-pyrimidine-5-carbonitrile] it was 5.30; in that of `CCOC(=O)c1cnc(-c2ccccc2)nc1NN1C(=O)C=C(C)C1=O` [4-(3-Methyl-2,5-dioxo-2,5-dihydro-pyrrol-1-ylamino)-2-phenyl-pyrimidine-5-carboxylic acid ethyl ester], 7.00. In the case of `CCOC(=O)c1cnc(-c2csc(C)n2)nc1NN1C(=O)C=C(C)C1=O` [4-(3-Methyl-2,5-dioxo-2,5-dihydro-pyrrol-1-ylamino)-2-(2-methyl-thiazol-4-yl)-pyrimidine-5-carboxylic acid ethyl ester], the pIC50 was 5.10.

Take `CCOC(=O)c1cnc(Sc2ccccc2)nc1NN1C(=O)C=C(C)C1=O` [ethyl 4-(3-methyl-2,5-dioxo-2,5-dihydro-1H-pyrrol-1-ylamino)-2-(phenylthio)pyrimidine-5-carboxylate]: the negative logarithm of the IC50 (pIC50) is 6.00. In turn, `CCOC(=O)c1cnc(C(=O)c2ccco2)nc1NN1C(=O)C=C(C)C1=O` [ethyl 2-(furan-2-carbonyl)-4-(3-methyl-2,5-dioxo-2H-pyrrol-1(5H)-ylamino)pyrimidine-5-carboxylate] gave a pIC50 of 6.15. As for `CCOC(=O)c1cnc(C(F)(F)F)nc1NN1C(=O)C=C(c2ccccc2)C1=O` [4-(2,5-Dioxo-3-phenyl-2,5-dihydro-pyrrol-1-ylamino)-2-trifluoromethyl-pyrimidine-5-carboxylic acid ethyl ester], the negative logarithm of the IC50 (pIC50) was 4.70. The molecule `CCOC(=O)c1cnc(-c2cccc(Br)c2)nc1NN1C(=O)C=C(C)C1=O` [2-(3-Bromo-phenyl)-4-(3-methyl-2,5-dioxo-2,5-dihydro-pyrrol-1-ylamino)-pyrimidine-5-carboxylic acid ethyl ester] showed a pIC50 of 6.15. Against the preceding molecule, the pIC50 is 1.45 log units higher. For `CCOC(=O)c1cnc(-c2ccc(Cl)cc2)nc1NN1C(=O)C=C(C)C1=O` [ethyl 2-(4-chlorophenyl)-4-(3-methyl-2,5-dioxo-2H-pyrrol-1(5H)-ylamino)pyrimidine-5-carboxylate], the negative logarithm of the IC50 (pIC50) was 6.52. Compared with the last molecule, the pIC50 is 0.37 log units higher. Consider `CCOC(=O)c1cnc(C(F)(F)F)nc1NN1C(=O)C=CC1=O` [ethyl 4-(2,5-dioxo-2H-pyrrol-1(5H)-ylamino)-2-(trifluoromethyl)pyrimidine-5-carboxylate], for which the pIC50 is 5.00. In the case of `CCOC(=O)c1cnc(C2CC2)nc1NN1C(=O)C=C(C)C1=O` [2-Cyclopropyl-4-(3-methyl-2,5-dioxo-2,5-dihydro-pyrrol-1-ylamino)-pyrimidine-5-carboxylic acid ethyl ester] it was 6.00; in that of `CCOC(=O)c1cnc(Cc2ccccc2)nc1NN1C(=O)C=C(C)C1=O` [ethyl 2-benzyl-4-(3-methyl-2,5-dioxo-2H-pyrrol-1(5H)-ylamino)pyrimidine-5-carboxylate], 5.15.
